Patent publication US10639287B2, “Compounds for the treatment of mitochondrial diseases” (UNIVERSITE PARIS-SUD, priority 2014, dated 2020)

What was measured:
[1] = system: neuronal cybrids derived from a MELAS patient (m.3243A>G tRNA^Leu mutation); assay: Lactate production of MELAS neuronal cybrids; type: cell-based, human; settings: 1 μM or 300 nM, 48 hours
Experimental: The increase in the lactate production is the result of a toxicity of the drug used, but also of a mitochondrial dysfunction (energy deficiency) present in MELAS syndrome.
(§1) Neuronal cybrid lines carrying the MELAS mutation and the parental control line were grown in sterile culture flasks and incubated at 37° C. with 5% CO2 in a medium composed of DMEM with 1.5 g/L glucose, 2 mM L-glutamine and supplemented with 10% foetal bovine serum as well as uridine (5 μg/ml) and pyruvate (10 μg/mL). The cells were harvested by trypsinisation in exponential phase and were used for subsequent biochemical or molecular mitochondrial analyses.
(§2) The MELAS neuronal cybrid line carrying the mutation seemingly in the homoplasmic state (i.e. reaching almost 100% MELAS mutation) and the SHSY-5Y parental control line were used for measurements of enzyme activities. […] These cell pellets were then analysed by spectrophotometry with measurement of the different mitochondrial biochemical activities, particularly the activity of citrate synthase and the activity of complex I of the respiratory chain. […]
The lactate concentration of the culture medium for neuronal cybrid and parental cells was determined by spectrophotometry using an enzymatic kit (Bohringer) on a Hitachi-Roche apparatus (Roche Diagnostics GmbH). […]

[2] = system: complex I in neuronal cybrids derived from a MELAS patient (m.3243A>G tRNA^Leu mutation); assay: Ratio of complex I/citrate synthase activities in MELAS neuronal cybrids; type: cell-based, human; settings: 1 μM or 300 nM, 48 hours
Experimental: The mutant MELAS neuronal transmitochondrial line, which is the result of the fusion of the immortalised neuoroblastoma parental line SHSY-5Y with fibroblasts carrying the mutation m.3243A>G, was created in the laboratory of Prof. Procaccio.
as §1, with “The cells were harvested by trypsinisation in exponential phase and were used for subsequent biochemical or molecular mitochondrial analyses.” left out
as §2
The enzymatic activities were measured according to the protocol described in Medjda et al, 2009 (Medja F, Allouche S, Frachon P, Jardel C, Malgat M, Mousson de Camaret B, Slama A, Lunardi J, Mazat J P, Lombès A. Development and implementation of standardized respiratory chain spectrophotometric assays for clinical diagnosis. Mitochondrion. 2009 September; 9(5):331-9).

## CCCCCCCN(CC)CCCC(O)c1ccc(NS(C)(=O)=O)cc1 (centres unmarked) [ibutilide]
[1]
  production of lactate: decreased
[2]
  activity of complex I (ratio complex I/citrate synthase): increased
